The text below walks through data of PMC6136576, “Ubiquitin-Mimicking Peptides Transfer Differentiates by E1 and E2 Enzymes” (BioMed Research International, 2018).

“Also recorded” adds a separate entry of the source. Marks after values point to notes of the source that are not given here.

One assay deals with T1, Ube1 (Homo sapiens, UniProt P22314).
T1 sequence (P22314 1-1058): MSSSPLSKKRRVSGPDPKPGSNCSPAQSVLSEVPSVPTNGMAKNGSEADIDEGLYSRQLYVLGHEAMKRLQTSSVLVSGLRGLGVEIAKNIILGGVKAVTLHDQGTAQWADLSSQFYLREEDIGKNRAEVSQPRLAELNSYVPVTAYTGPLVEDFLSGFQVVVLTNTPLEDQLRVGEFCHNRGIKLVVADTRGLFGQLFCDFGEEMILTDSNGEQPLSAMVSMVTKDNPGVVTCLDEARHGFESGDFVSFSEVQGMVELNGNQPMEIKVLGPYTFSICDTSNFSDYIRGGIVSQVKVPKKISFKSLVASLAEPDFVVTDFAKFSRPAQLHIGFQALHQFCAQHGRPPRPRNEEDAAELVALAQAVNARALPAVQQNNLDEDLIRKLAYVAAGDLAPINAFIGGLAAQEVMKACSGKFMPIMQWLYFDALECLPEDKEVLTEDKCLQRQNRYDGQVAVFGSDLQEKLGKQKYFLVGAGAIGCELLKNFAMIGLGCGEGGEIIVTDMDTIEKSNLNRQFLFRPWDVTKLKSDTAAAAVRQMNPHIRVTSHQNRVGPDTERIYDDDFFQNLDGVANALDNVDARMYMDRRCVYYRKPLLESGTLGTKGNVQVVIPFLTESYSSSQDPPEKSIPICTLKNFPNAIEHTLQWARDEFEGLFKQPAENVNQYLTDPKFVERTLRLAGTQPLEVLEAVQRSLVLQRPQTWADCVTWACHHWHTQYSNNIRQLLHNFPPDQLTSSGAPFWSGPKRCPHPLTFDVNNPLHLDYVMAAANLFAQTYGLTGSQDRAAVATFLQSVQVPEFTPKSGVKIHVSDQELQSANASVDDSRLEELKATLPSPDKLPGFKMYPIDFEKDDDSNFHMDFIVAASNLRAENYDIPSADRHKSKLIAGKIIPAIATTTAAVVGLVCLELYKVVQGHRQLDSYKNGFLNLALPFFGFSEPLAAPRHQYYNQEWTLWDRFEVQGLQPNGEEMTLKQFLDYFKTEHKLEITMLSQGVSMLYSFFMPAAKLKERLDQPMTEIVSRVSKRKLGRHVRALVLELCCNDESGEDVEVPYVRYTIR
Put plainly: ATP-PPi exchange assay of Ube1 activation. The conditions noted are these: for Km / kcat / kcat/Km: ATP-PPi exchange catalyzed by Ube1, 0.05 uM Ube1, peptides 10-1000 uM, n=3; for Km: 50 mM Tris-Cl pH7.5, 10 mM MgCl2, 1 mM ATP, 1 mM [32P]pyrophosphate, room temperature; for Km / kcat: Michaelis-Menten fit; for kcat / kcat/Km: pH7.5, room temperature; for reactivity of free 7mer peptides with Ube1 (ATP-PPi exchange rate): free short peptides, Figure 1, n=3. The format is biochemical. On the procedure:
Initial velocity of Ube1-activated peptides either in the free state or on different frames was followed by the ATP-PPi exchange assay. 50 uL reactions were set up containing varying concentrations of peptides, 0.05 uM Ube1, 50 mM Tris-Cl, pH7.5, 10 mM MgCl2, and 1 mM ATP. The reactions were initiated by adding of 1 mM [^32P]pyrophosphate (4.6 Ci/mol). The reactions were incubated at room temperature and quenched at various time points by adding of 0.5 mL of a suspension of activated charcoal (1.6 % (w/v) charcoal, 0.1 M tetrasodium pyrophosphate, and 0.35 M perchloric acid) to each of the reactions. The charcoal was pelleted by centrifugation and each charcoal pellet was washed three times with 1 ml 2 % trichloroacetic acid. Finally the charcoal pellet was resuspended in 0.5 ml water and the suspension was added to 3.5 mL Ultima Gold LSC-cocktail (PerkinElmer). The radioactivity bound to charcoal was determined by liquid scintillation counting. To measure the kinetics of the peptides activation by Ube1, initial velocities of ATP-PPi exchange were determined with concentrations of peptides varying from 10 uM to 1000 uM. The kinetic data were fitted to the Michaelis-Menten equation with the data analysis software Origin.

The next assay has as its system E2 and E3. The note with it: cited from earlier work.

For the substance “AGRMLGG [C7, heptamer peptide AGRMLGG from Ubiquitin-like protein fubi and ribosomal protein S30 precursor]”, on Ube1, the Michaelis constant (Km) was 543 ± 122 µM; the kcat is reported as 5.54±1.37^c min^−1; the kcat/Km is 1.01 x10^−2^c μM min^−1; the “reactivity of free 7mer peptides with Ube1 (ATP-PPi exchange rate)” value was “displayed affinity with Ube1 with a similar level of efficiency as P3 and P4; also recorded: highest activity of the three peptides identified in this study”.

Take “ALKERGG [C3, heptamer peptide ALKERGG from Human splicing factor 3A subunit 1 isoform 1]”: the “reactivity of free 7mer peptides with Ube1 (ATP-PPi exchange rate)” value on Ube1 is “neither C8, containing Arg but only one Gly, nor C3, which possesses the C-terminal Gly-Gly but with a homologous replacement of Arg to Lys, showed any reactivity toward Ube1”.

For “EPRLCGG [C1, heptamer peptide EPRLCGG from the motif of Human C1orf55]”, on Ube1, the Km stood at 651 ± 49.3 µM; the kcat was 2.29±0.59^a min^−1; the kcat/Km was 3.52 x10^−3^a μM min^−1; the “reactivity of free 7mer peptides with Ube1 (ATP-PPi exchange rate)” value was “displayed affinity with Ube1 with a similar level of efficiency as P3 and P4”.

As to “IPRDRVG [C8, heptamer peptide IPRDRVG from Ubiquitin-fold modifier 1 (Homo sapiens)]”, the “reactivity of free 7mer peptides with Ube1 (ATP-PPi exchange rate)” value on Ube1 is “neither C8, containing Arg but only one Gly, nor C3, which possesses the C-terminal Gly-Gly but with a homologous replacement of Arg to Lys, showed any reactivity toward Ube1”.

Take VLRLRGG [P1, reference compound]: on Ube1, the kcat/Km came to 5.24e-05 µM/min and the “reactivity of free 7mer peptides with Ube1 (ATP-PPi exchange rate)” value is “could not be conjugated to Ube1”.

For “VLRQLGG [C2, heptamer peptide VLRQLGG from Drosophila homologue of C1orf55]”, on Ube1, the Km came out at 611 ± 23.1 µM; the kcat was 3.73±0.87^b min^−1; the kcat/Km is given as 6.10 x10^−3^b μM min^−1; the “reactivity of free 7mer peptides with Ube1 (ATP-PPi exchange rate)” value is “displayed affinity with Ube1 with a similar level of efficiency as P3 and P4”.

For “VQRYWGG [P3, previously reported short peptide VQRYWGG, positive control, reference compound]”, on Ube1, the Michaelis constant (Km) turned out to be 476 ± 163 µM, the kcat was determined as 6.68 ± 0.77 min⁻¹, the kcat/Km is 0.014 µM/min and the “reactivity of free 7mer peptides with Ube1 (ATP-PPi exchange rate)” value is given as “showed significant activity with Ube1”. The “transfer of free peptides to E2 and E3” value with E2 and E3 is “could be transferred to E2 and E3”.

“VYRFYGG [P4, previously reported short peptide VYRFYGG, positive control, reference compound]”: on Ube1, the Km turned out to be 251 ± 55.6 µM, the catalytic constant (kcat) is 13.98 ± 2.08 min⁻¹, the kcat/Km was determined as 0.0557 µM/min and the “reactivity of free 7mer peptides with Ube1 (ATP-PPi exchange rate)” value is listed as “showed significant activity with Ube1”. In the assay with E2 and E3, the “transfer of free peptides to E2 and E3” value is “could be transferred to E2 and E3”.
